Results as given in patent EP2233463A1, “NEW COMPOUNDS ISOLATED FROM EXTRACT OF ANTRODIA CAMPHORATA” (Golden Biotechnology Corporation, priority 2007, dated 2009).
Converted amounts (≈) assume the structure as drawn.

Legend:
Type in all cases: cell-based
[1] = test system: human prostate cancer cells, DU-145; assay: Ex vivo survival assay (MTT) for anti-prostate cancer effects, DU-145; conditions: for IC50 value lower than the IC50 value of the control group: DU-145, relative to control group (41.39 µg/ml); for IC50 ( µg/ml ) DU-145: DU-145 cells, 48 hours incubation, MTT, 570 nm
Description: (§1) MTT assay is commonly used to determine cell proliferation, percent of viable cells, and cytotoxicity. 3-[4,5-dimethylthiazol-2-yl]2,5-diphenyltetrazolium bromide (MTT) is a yellow dye, which can be absorbed by the living cells and be reduced to purplish blue formazan crystals by succinate tetrazolium reductase in mitochondria. Formazan formation can therefore be used to assess and determine the survival rate of cells.
(§2) The NCI anti-cancer drug screen model was also employed to test the anti-cancer effect of the Antroquinonols in the present invention. Antroquinonol B and Antroquinonol C isolated from […] were added into the culture media of human prostate cancer cells, LNCaP or DU-145, and prostate cancer cell survival rates were analyzed with the abovementioned MTT assay. LNCaP is originated from epithelial cells of prostate gland, which depends on androgen in the early stage and thus is androgen-dependent cancer cell. […] This recurrent type prostate cancer has no effective treatment so far. Both LNCaP and DU-145 were ordered from NHRI with accession numbers of CCRC 60088 and CCRC 60348 respectively.
(§3) The human prostate-cancer cells, LNCaP and DU-145, were cultivated in media containing fetal calf serum for 24 hours. The proliferated cells were washed once with PBS, then treated with 1x trypsin-EDTA and centrifuged at 1200 rpm for 5 minutes. The supernatant was discarded and the cell pellet was resuspended in 10 ml of fresh culture medium by gently shaking. The cells were placed in a 96-well plate. Total ethanol extracts of Antrodia camphorata without purification (the control group), Antroquinonol B or Antroquinonol C (the experimental group) were added into each of the 96 wells at the following concentrations: 30, 10, 3, 1, 0.3, 0.1 and 0.03 µg/ml, respectively. The cells were incubated at 37°C in a 5% CO2 incubator for 48 hours. MTT was added in a concentration of 2.5 mg/ml into each well in dark and incubated for 4 hours, followed by the addition of 100 µl of lysis buffer to stop the reaction. The plates were read on an ELISA reader at wavelength of 570 nm to determine the survival rates. Table 4 Results of ex vivo survival assay for inhibition of prostate cancer cells

[2] = test system: human hepatic-cancer cells, Hep 3B; assay: Ex vivo survival assay (MTT) for anti-hepatic cancer effects, Hep 3B; conditions: for IC50 ( µg/ml ) Hep3B: Hep 3B cells, 48 hours incubation, MTT, 570 nm; for IC50 value lower than that of crude extracts from A. camphorata: Hep 3B, relative to crude extracts (5.10 µg/ml)
Description: (§4) MTT assay is commonly used to determine cell proliferation, percent of viable cells, and cytotoxicity. 3-[4,5-dimethylthiazol-2-yl]2,5-diphenyltetrazolium bromide (MTT) is a yellow dye, which can be absorbed by the living cells and be reduced to purplish blue formazan crystals by succinate tetrazolium reductase in mitochondria. Formazan formation can therefore be used to assess and determine the survival rate of cells. The NCI anti-cancer drug screen model was employed to test the anti-cancer effect of the Antroquinonol B and Antroquinono C in the present invention. The Antroquinonos isolated from example 1 were added into the culture media of human hepatic-cancer cells, Hep 3B or Hep G2, for tumor cell survival assay. Hepatic-cancer cells Hep 3B (BCRC 60434) and Hep G2 (BCRC 60025), were obtained from the Bioresources Collection and Research Center (BCRC) of the Food Industry Research and Development Institute. The human hepatic-cancer cells, Hep 3B and Hep G2, were cultivated in media containing fetal calf serum for 24 hours. The proliferated cells were washed once with PBS, then treated with 1x trypsin-EDTA and centrifuged at 1200 rpm for 5 minutes. The supernatant was discarded and the cell pellet was resuspended in 10 ml of fresh culture medium by gently shaking. The cells were placed in a 96-well plate. Total ethanol extracts of Antrodia camphorata without purification (the control group), Antroquinonol B or Antroquinonol C (the experimental group) were added into each of the 96 wells at the following concentrations: 30, 10, 3, 1, 0.3, 0.1 and 0.03 µg/ml, respectively. The cells were incubated at 37°C in a 5% CO2 incubator for 48 hours. MTT was added in a concentration of 2.5 mg/ml into each well in dark and incubated for 4 hours, followed by the addition of 100 µl of lysis buffer to stop the reaction. The plates were read on an ELISA reader at wavelength of 570 nm to determine the survival rates. Table 3 Results of ex vivo survival assay for inhibition of hepatic cancer cells

[3] = test system: human lung cancer cell A549; assay: Ex vivo survival assay (MTT) for anti-lung cancer effects, A549; conditions: for IC50 value lower than that of crude extracts from A. camphorata: A549, relative to crude extracts (13.21 µg/ml); for IC50 ( µg/ml ) A549: A549 cells, 48 hours incubation, MTT, 570 nm
Description: MTT assay is commonly used to determine cell proliferation, percent of viable cells, and cytotoxicity. 3-[4,5-dimethylthiazol-2-yl]2,5-diphenyltetrazolium bromide (MTT) is a yellow dye, which can be absorbed by the living cells and be reduced to purplish blue formazan crystals by succinate tetrazolium reductase in mitochondria. Formazan formation can therefore be used to assess and determine the survival rate of cells. The NCI anti-cancer drug screen model was also employed to test the anti-lung cancer effect of the Antroquinonol B and Antroquinonol C in the present invention. The Antroquinonols isolated from example 1 were added into the culture media of human lung cancer cell A549 with the abovementioned MTT assay to analyze lung cancer cell survival rates. Human lung cancer cell A549 was obtained from the Bioresources Collection and Research Center (BCRC) of the Food Industry Research and Development Institute with an accession number of BCRC 60074. A549 cells were cultivated in media containing fetal calf serum for 24 hours. The proliferated cells were washed once with PBS, then treated with 1x trypsin-EDTA and centrifuged at 1200 rpm for 5 minutes. The supernatant was discarded and the cell pellet was resuspended in 10 ml of fresh culture medium by gently shaking. The cells were placed in a 96-well plate. Total ethanol extracts of Antrodia camphorata without purification (the control group), Antroquinonol B or Antroquinonol C (the experimental group) were added into each of the 96 wells at the following concentrations: 30, 10, 3, 1, 0.3, 0.1 and 0.03 µg/ml, respectively. The cells were incubated at 37°C in a 5% CO2 incubator for 48 hours. MTT was added in a concentration of 2.5 mg/ml into each well in dark and incubated for 4 hours, followed by the addition of 100 µl of lysis buffer to stop the reaction. The plates were read on an ELISA reader at wavelength of 570 nm to determine the survival rates. Table 2 Results of ex vivo survival assay for inhibition of lung cancer cells

[4] = test system: human hepatic-cancer cells, Hep G2; assay: Ex vivo survival assay (MTT) for anti-hepatic cancer effects, Hep G2; conditions: for IC50 value lower than that of crude extracts from A. camphorata: Hep G2, relative to crude extracts (18.63 µg/ml); for IC50 ( µg/ml ) HepG2: Hep G2 cells, 48 hours incubation, MTT, 570 nm
Description: as §4

[5] = test system: human breast-cancer cells, MDA-MB-231; assay: Ex vivo survival assay (MTT) for anti-breast cancer effects, MDA-MB-231; conditions: for IC50 value lower than that of crude extracts from A. camphorata: MDA-MB-231, relative to crude extracts (25.81 µg/ml); for IC50(µg/ml) MDA-MB-231: MDA-MB-231 cells, 48 hours incubation, MTT, 570 nm
Protocol: (§5) The NCI anti-cancer drug screen model was adopted to test the anti-cancer effect of the isolated compounds from example 1 in the present invention. The isolated Antroquinonol B and Antroquinonol C from example 1 were added into the culture media of human breast-cancer cells, MCF-7 or MDA-MB-231, to test for tumor cell survival. This survival assay was carried out with the widely known MTT (3-[4,5-dimethylthiazol-2-yl]2,5-diphenyltetrazolium bromide) assay. MCF-7 cell line is originated from primary breast cancer cells (early stage), sensitive to estrogen and therefore is estrogen-dependent, while MDA-MB-231 is insensitive to estrogen and therefore is estrogen-independent, which is a difficult tumor with a low survival rate. MTT assay is commonly used to determine cell proliferation, percent of viable cells, and cytotoxicity. 3-[4,5-dimethylthiazol-2-yl]2,5-diphenyltetrazolium bromide (MTT) is a yellow dye, which can be absorbed by the living cells and be reduced to purplish blue formazan crystals by succinate tetrazolium reductase in mitochondria. Formazan formation can therefore be used to assess and determine the survival rate of cells. The human breast-cancer cells, MCF-7 (purchased from the Bioresources Collection and Research Center (BCRC) with the accession number of BCRC60436) and MDA-MB-231 (purchased from National Health Research Institutes (NHRI) with the accession number of CCRC 60425) were cultivated in media containing fetal calf serum for 24 hours. The proliferated cells were washed once with PBS, then treated with 1x trypsin-EDTA and centrifuged at 1200 rpm for 5 minutes. The supernatant was discarded and the cell pellet was resuspended in 10 ml of fresh culture medium by gently shaking. The cells were placed in a 96-well plate. Total ethanol extracts of Antrodia camphorata without purification (the control group), Antroquinonol B or Antroquinonol C (the experimental group) were added into each of the 96 wells at the following concentrations: 30, 10, 3, 1, 0.3, 0.1 and 0.03 µg/ml, respectively. The cells were incubated at 37°C in a 5% CO2 incubator for 48 hours. MTT was added in a concentration of 2.5 mg/ml into each well in dark and incubated for 4 hours, followed by the addition of 100 µl of lysis buffer to stop the reaction. The plates were read on an ELISA reader at wavelength of 570 nm to determine the survival rates. Table 1 Results of ex vivo survival assay for inhibition of breast cancer cells

[6] = test system: human breast-cancer cells, MCF-7; assay: Ex vivo survival assay (MTT) for anti-breast cancer effects, MCF-7; conditions: for IC50 value lower than that of crude extracts from A. camphorata: MCF-7, relative to crude extracts (11.13 µg/ml); for IC50(µg/ml) MCF-7: MCF-7 cells, 48 hours incubation, MTT, 570 nm
Protocol: as §5

[7] = test system: human prostate cancer cells, LNCaP; assay: Ex vivo survival assay (MTT) for anti-prostate cancer effects, LNCaP; conditions: for IC50 ( µg/ml ) LNCaP: LNCaP cells, 48 hours incubation, MTT, 570 nm; for IC50 value lower than the IC50 value of the control group: LNCaP, relative to control group (11.49 µg/ml)
Description: as §1, §2, §3

Compound	IC50 value lower than the IC50 value of the control group [1]	IC50 ( µg/ml ) DU-145 [1]	IC50 ( µg/ml ) Hep3B [2]	IC50 value lower than that of crude extracts from A. camphorata [2]	IC50 value lower than that of crude extracts from A. camphorata [3]	IC50 ( µg/ml ) A549 [3]	IC50 value lower than that of crude extracts from A. camphorata [4]	IC50 ( µg/ml ) HepG2 [4]	IC50 value lower than that of crude extracts from A. camphorata [5]	IC50(µg/ml) MDA-MB-231 [5]	IC50 value lower than that of crude extracts from A. camphorata [6]	IC50(µg/ml) MCF-7 [6]	IC50 ( µg/ml ) LNCaP [7]	IC50 value lower than the IC50 value of the control group [7]
Antroquinonol C	70.5%	12.21 µg/mL	1.32 µg/mL	74.12%	37.85%	8.21 µg/mL	72.52%	5.12 µg/mL	15.15%	21.9 µg/mL	89.49%	1.17 µg/mL	8.72 µg/mL	24.11%
COC1=C(OC)[C@H](O)[C@H](C/C=C(\C)CC/C=C(/C)C/C=C/C(C)(C)O)[C@@H](C)C1=O [Antroquinonol B]	75.55%	10.12 µg/mL (≈ 24.9 µM)	1.21 µg/mL (≈ 2.98 µM)	76.27%	9.92%	11.9 µg/mL (≈ 29.3 µM)	82.18%	3.32 µg/mL (≈ 8.17 µM)	66.21%	8.72 µg/mL (≈ 21.4 µM)	82.56%	1.94 µg/mL (≈ 4.77 µM)	5.67 µg/mL (≈ 13.9 µM)	50.65%
